Several values for one entry are separate records, joined by “and”; a condition that tells them apart may be missing. Equal entries are not always repeated.
Biological target: Genome polyprotein (dengue virus type 2, UniProt P29990)
Assay type: functional, Thailand/16681/1984

Genome polyprotein, sequence (P29990 1346-1475 limits assumed): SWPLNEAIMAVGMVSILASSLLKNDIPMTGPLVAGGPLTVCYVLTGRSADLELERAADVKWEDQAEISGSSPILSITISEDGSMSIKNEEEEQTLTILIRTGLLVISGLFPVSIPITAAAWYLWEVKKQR
Genome polyprotein, sequence (P29990 1476-2093 limits assumed): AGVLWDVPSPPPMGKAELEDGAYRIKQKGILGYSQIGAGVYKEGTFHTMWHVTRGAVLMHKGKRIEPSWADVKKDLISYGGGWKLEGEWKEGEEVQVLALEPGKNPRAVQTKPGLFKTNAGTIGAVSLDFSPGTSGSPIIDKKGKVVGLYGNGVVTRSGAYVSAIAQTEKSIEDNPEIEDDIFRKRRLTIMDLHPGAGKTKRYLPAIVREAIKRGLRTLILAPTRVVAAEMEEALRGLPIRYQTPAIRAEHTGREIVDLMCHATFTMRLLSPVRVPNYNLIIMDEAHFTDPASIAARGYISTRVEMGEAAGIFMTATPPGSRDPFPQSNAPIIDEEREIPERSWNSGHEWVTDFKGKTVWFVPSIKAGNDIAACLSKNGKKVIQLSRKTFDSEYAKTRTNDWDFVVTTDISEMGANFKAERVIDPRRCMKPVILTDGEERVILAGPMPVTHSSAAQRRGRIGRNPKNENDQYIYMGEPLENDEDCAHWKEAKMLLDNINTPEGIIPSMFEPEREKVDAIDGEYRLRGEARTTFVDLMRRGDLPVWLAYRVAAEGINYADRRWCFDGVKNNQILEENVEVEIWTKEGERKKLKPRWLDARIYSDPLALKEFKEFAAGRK

| Compound | IC50 |
| --- | --- |
| O=C(N[C@H](C(=O)NCc1cccc(CC(F)(F)F)c1)c1ccc(OCc2ccccc2)cc1)OCc1ccccc1 | > 99.5 µM |
| CCn1c(=O)c(N2CCCC[C@H](N3CCCC3)C2)nc2ccccc21 | > 99.5 µM |
| Cc1ccc([C@@H](NC(=O)OCc2ccccc2)C(=O)Nc2cccc(CN)c2)cc1C(F)(F)F | > 99.5 µM |
| CCn1c(=O)c(N2C[C@@H](CO)[C@H](c3cncn3C)C2)nc2ccccc21 | > 99.5 µM |
| NC(=O)c1cccnc1N1CCCN(c2nc(-c3cc(Cl)cc(Cl)c3)no2)CC1 | > 99.5 µM |
| O=c1[nH]ncn1C1CCN(Cc2c[nH]c3ccccc23)CC1 | > 99.5 µM |
| CCn1c(=O)c(N2CC[C@H](N3CCCS3(=O)=O)C2)nc2ccccc21 | > 99.5 µM |
| N#Cc1ccccc1-c1ccc([C@H](NC(=O)OCc2ccccc2)C(=O)Nc2cccc(CN)c2)cc1 | 18.6 µM |
| COc1ncccc1-c1ccc([C@@H](NC(=O)OCc2ccccc2)C(=O)Nc2cccc(CN)c2)cc1 | 23 µM |
| CCNC(=O)[C@@H](NC(=O)OCc1ccccc1)c1ccc(OCc2ccccc2)cc1 | > 99.5 µM |
| CCn1c(=O)c(N2C[C@H]3C[C@@H](O)CC[C@H]3C2)nc2ccccc21 | > 99.5 µM |
| CS(=O)(=O)NCc1ccc(CNC(=O)[C@@H](NC(=O)OCc2ccccc2)c2ccc(OCc3ccccc3)cc2)cc1 | > 99.5 µM |
| NCc1cccc(NC(=O)[C@@H](NC(=O)OCc2ccccc2)c2ccc(-c3ccc4scnc4c3)cc2)c1 | 42.9 µM |
| Cn1cc(Nc2ccc(S(=O)(=O)Nc3ccc(Cl)cc3C(=O)O)cn2)cn1 | > 99.5 µM |
| O=C(NS(=O)(=O)C1CC1)c1cc(Cl)ccc1NS(=O)(=O)c1ccc(Oc2ccccc2Cl)cc1 | 7.33 µM |
| CC(C)n1cc(CNC(=O)[C@@H](NC(=O)OCc2ccccc2)c2ccc(OCc3ccccc3)cc2)cn1 | > 99.5 µM |
| CN1Cc2ccc(CNC(=O)[C@@H](NC(=O)OCc3ccccc3)c3ccc(OCc4ccccc4)cc3)cc2C1 | > 99.5 µM |
| CC[C@H]1CN2CCC[C@H]2CN1c1nc2ccccc2n(CC)c1=O | > 99.5 µM |
| CCn1c(=O)c(N2C[C@@H]3CN(C4CCC4)C[C@@H]3C2)nc2ccccc21 | > 99.5 µM |
| CCn1c(=O)c(N2CC3(CCC3)C[C@@H]2C)nc2ccccc21 | > 99.5 µM |
| CC(C)c1cc(-c2ccc([C@@H](NC(=O)OCc3ccccc3)C(=O)Nc3cccc(CN)c3)cc2)on1 | > 99.5 µM |
| NCc1cccc(NC(=O)[C@@H](NC(=O)OCc2ccccc2)c2ccc(-c3ccnc4[nH]ccc34)cc2)c1 | > 99.5 µM |
| CCn1cc(-c2ccccc2N)nc(N2CC[C@@H](CO)C2)c1=O | > 99.5 µM |
| O=C(O)c1cc(Cl)ccc1CNS(=O)(=O)c1ccc(Oc2ccccc2Cl)cc1 | 98.8 µM |
| CCn1c(=O)c(N2C[C@@H]3CS(=O)(=O)C[C@@H]3C2)nc2ccccc21 | > 99.5 µM |

| Compound | IC50 |
| --- | --- |
| COc1cncc(CNC(=O)[C@@H](NC(=O)OCc2ccccc2)c2ccc(OCc3ccccc3)cc2)c1 | > 99.5 µM |
| CCn1c(=O)c(N2CC[C@@H](CN3CCCCC3)C2)nc2ccccc21 | > 99.5 µM |
| Cc1noc(C)c1-c1ccc([C@@H](NC(=O)OCc2ccccc2)C(=O)Nc2cccc(CN)c2)cc1 | > 99.5 µM |
| O=C(O)Cn1ccnc(N2CC[C@@H](CO)C2)c1=O | > 99.5 µM |
| CN1CCc2ccc(C(=O)N3CCNc4ccccc4C3)cc2C1 | > 99.5 µM |
| NS(=O)(=O)c1ccc(N2CCC=C(c3cccc(O)c3)C2)c2ncccc12 | > 99.5 µM |
| O=C(O)c1cc(Cl)ccc1NS(=O)(=O)c1ccc(N[C@H]2CCCOC2)nc1 | > 99.5 µM |
| CCn1c(=O)c(N2C[C@@H]3CCO[C@]3(COC)C2)nc2ccccc21 | > 99.5 µM |
| CCn1c(=O)c(N2CCC[C@H]2c2noc(C)n2)nc2ccccc21 | > 99.5 µM |
| CN(C)Cc1ccccc1CNC(=O)[C@@H](NC(=O)OCc1ccccc1)c1ccc(OCc2ccccc2)cc1 | > 99.5 µM |
| CN(C)Cc1cncc(NC(=O)[C@@H](NC(=O)OCc2ccccc2)c2ccc(OCc3ccccc3)cc2)c1 | > 99.5 µM |
| Cc1nc(-c2ccc([C@@H](NC(=O)OCc3ccccc3)C(=O)Nc3cccc(CN)c3)cc2)cs1 | > 99.5 µM |
| O=C(N[C@H](C(=O)NCc1ccc(F)cc1)c1ccc(OCc2ccccc2)cc1)OCc1ccccc1 | > 99.5 µM |
| CCn1c(=O)c(N2CC[C@@]3(COC(=O)N3)C2)nc2ccccc21 | > 99.5 µM |
| NCc1cccc(NC(=O)[C@@H](NC(=O)OCc2ccccc2)c2ccc(C3=CCCOC3)cc2)c1 | > 99.5 µM |
| CN1CC[C@H](C2CCN(S(=O)(=O)c3cc(F)cc(C(=O)O)c3)CC2)C1 | > 99.5 µM |
| CN(C)CCOc1cccc(CNC(=O)[C@@H](NC(=O)OCc2ccccc2)c2ccc(OCc3ccccc3)cc2)c1 | > 99.5 µM |
| CCn1cc(C(=O)O)nc(N2CC[C@@H](CO)C2)c1=O | > 99.5 µM |
| Cc1cnn(-c2cccc(-c3cccc(C4(CN)CC4)c3)c2)c1 | > 99.5 µM |
| O=C(N[C@@H](C(=O)NCc1cccnc1)c1ccc(OCc2ccccc2)cc1)OCc1ccccc1 | > 99.5 µM |
| CS(=O)(=O)c1cccc(CNC(=O)[C@@H](NC(=O)OCc2ccccc2)c2ccc(OCc3ccccc3)cc2)c1 | > 99.5 µM |
| CCn1c(=O)c(N2CCC[C@H]2c2cncc(Br)c2)nc2ccccc21 | > 99.5 µM |
| O=C(N[C@@H](C(=O)NCc1c[nH]cn1)c1ccc(OCc2ccccc2)cc1)OCc1ccccc1 | > 99.5 µM |
| Cc1ccc(COc2ccc(S(=O)(=O)Nc3ccc(Cl)cc3C(=O)O)cc2)cc1 | 9.45 µM |
| O=C(N[C@@H](C(=O)NC1CCCCC1)c1ccc(OCc2ccccc2)cc1)OCc1ccccc1 | > 99.5 µM |

| Compound | IC50 |
| --- | --- |
| CCn1c(=O)c(N2CC[C@H](NC(=O)NC3CC3)C2)nc2ccccc21 | > 99.5 µM |
| NCc1cccc(NC(=O)[C@@H](NC(=O)OCc2ccccc2)c2ccc(-c3ccc4cn[nH]c4c3)cc2)c1 | 6.06 µM and 6 µM and 5.75 µM |
| CN1CCC(c2nc(C(F)(F)F)n3c2CN(c2cccc(C(N)=O)n2)CC3)CC1 | > 99.5 µM |
| CCn1c(=O)c(N2C[C@H]3COC(C)(C)OC[C@H]3C2)nc2ccccc21 | > 99.5 µM |
| CN1CCc2ncc(NC(=O)[C@@H](NC(=O)OCc3ccccc3)c3ccc(OCc4ccccc4)cc3)cc2C1 | > 99.5 µM |
| CCn1c(=O)c(N2CC(S(=O)(=O)N3CCCC3)C2)nc2ccccc21 | > 99.5 µM |
| OCc1ccc(Cl)c(N2CCN(c3ccc4[nH]cnc4c3)CC2)n1 | > 99.5 µM |
| CCn1c(=O)c(N2C[C@@H]3[C@H](C2)[C@H]3C(=O)OC)nc2ccccc21 | > 99.5 µM |
| NCc1cccc(NC(=O)[C@@H](NC(=O)OCc2ccccc2)c2ccc(-c3cccc4nonc34)cc2)c1 | 11.6 µM and 5.73 µM |
| CC(C)c1cnc(COc2ccc(S(=O)(=O)Nc3ccc(Cl)cc3C(=O)O)cc2)o1 | 55.7 µM |
| CS(=O)(=O)NC(=O)c1cc(Cl)ccc1NS(=O)(=O)c1ccc(Oc2ccccc2Cl)cc1 | 12.2 µM |
| O=C(N[C@@H](C(=O)NCc1ccncc1)c1ccc(OCc2ccccc2)cc1)OCc1ccccc1 | > 99.5 µM |
| CCn1c(=O)c(N2CC[C@@H](Cc3ccncc3)C2)nc2ccccc21 | > 99.5 µM |
| CN(C)Cc1ccc(CNC(=O)[C@@H](NC(=O)OCc2ccccc2)c2ccc(OCc3ccccc3)cc2)cc1 | > 99.5 µM |
| NS(=O)(=O)c1cc(F)c(Cl)cc1N1CCN(c2ccnc(O)c2)CC1 | > 99.5 µM |
| CCn1c(=O)c(N2CC[C@@]23CCN(C)C3)nc2ccccc21 | > 99.5 µM |
| CCn1c(=O)c(N2CC3(CCCCC3)C[C@H]2CO)nc2ccccc21 | > 99.5 µM |
| NCc1cccc(NC(=O)[C@@H](NC(=O)OCc2ccccc2)c2ccc(-c3ccc(N)nc3)cc2)c1 | > 99.5 µM |
| CN(C)Cc1cc(CNC(=O)[C@@H](NC(=O)OCc2ccccc2)c2ccc(OCc3ccccc3)cc2)ccc1F | > 99.5 µM |
| CCn1c(=O)c(N2C[C@H]3CN(C)CC[C@H]3C2)nc2ccccc21 | > 99.5 µM |
| COc1ccc(COc2ccc(S(=O)(=O)Nc3ccc(Cl)cc3C(=O)O)cc2)nc1 | 74.1 µM |
| CC(C)(C)c1ncc(-c2ccc([C@@H](NC(=O)OCc3ccccc3)C(=O)Nc3cccc(CN)c3)cc2)o1 | > 99.5 µM |
| CCn1c(=O)c(N2CC[C@]3(CCCN(C)C3)C2)nc2ccccc21 | > 99.5 µM |
| O=C(O)c1ncc(F)cc1NS(=O)(=O)c1ccc(Oc2ccccc2Cl)cc1 | 61.7 µM |
| CCn1c(=O)c(N2C[C@H]3OCCN(C(C)=O)[C@H]3C2)nc2ccccc21 | > 99.5 µM |

| Compound | IC50 |
| --- | --- |
| C[C@@H]1c2cccnc2CCN1Cc1cccc(CN(C)C)c1 | > 99.5 µM |
| NCc1cccc(NC(=O)[C@@H](NC(=O)OCc2ccccc2)c2cccc(OCc3cncnc3)c2)c1 | > 99.5 µM |
| O=C(N[C@@H](C(=O)Nc1cccnc1)c1ccc(OCc2ccccc2)cc1)OCc1ccccc1 | > 99.5 µM |
| CCn1cc(-c2ccc(S(C)(=O)=O)cc2)nc(N2CC[C@@H](CO)C2)c1=O | > 99.5 µM |
| CCn1c(=O)c(N2CC[C@@]3(CCCN3C)C2)nc2ccccc21 | > 99.5 µM |
| CNc1nc2cc(-c3ccc4c(c3)C[C@H](N)C4)ccc2o1 | > 99.5 µM |
| CN(C)[C@H]1CCc2cc(-c3cccc(N4CCNC4=O)c3)ccc2NC1 | > 99.5 µM |
| NCc1cccc(NC(=O)[C@@H](NC(=O)OCc2ccccc2)c2ccc(-c3ccncc3F)cc2)c1 | > 99.5 µM |
| O=C(O)c1cc(Cl)c(F)cc1NS(=O)(=O)c1ccc(Oc2ccccc2)cc1 | 13.1 µM |
| COc1ccccc1-c1ccc([C@@H](NC(=O)OCc2ccccc2)C(=O)Nc2cccc(CN)c2)cc1 | > 99.5 µM |
| CCn1cc(-c2ccc(CN(C)C)cc2)nc(N2CC[C@@H](CO)C2)c1=O | > 99.5 µM |
| CC(C)(CO)NC(=O)[C@@H](NC(=O)OCc1ccccc1)c1ccc(OCc2ccccc2)cc1 | > 99.5 µM |
| Cc1n[nH]cc1-c1ccc([C@@H](NC(=O)OCc2ccccc2)C(=O)Nc2cccc(CN)c2)cc1 | > 99.5 µM |
| Cn1cc(-c2ccc([C@@H](NC(=O)OCc3ccccc3)C(=O)Nc3cccc(CN)c3)cc2)ccc1=O | > 99.5 µM |
| CCn1c(=O)c(N2C[C@H]3CCCN3C(=O)[C@H]2C)nc2ccccc21 | > 99.5 µM |
| CCn1c(=O)c(N2CCC[C@H]2CN2CCCC2)nc2ccccc21 | > 99.5 µM |
| CCn1cc(-c2cccc(-c3ccccc3)c2)nc(N2CC[C@@H](CO)C2)c1=O | > 99.5 µM |
| O=C(N[C@@H](C(=O)NCc1ccccn1)c1ccc(OCc2ccccc2)cc1)OCc1ccccc1 | > 99.5 µM |
| CCn1cc(-c2cn(C)nc2C(F)(F)F)nc(N2CC[C@@H](CO)C2)c1=O | > 99.5 µM |
| CCn1c(=O)c(N2CC[C@H](N3CCN(C)CC3)C2)nc2ccccc21 | > 99.5 µM |
| CCn1c(=O)c(N2CCC[C@H]2c2ncccn2)nc2ccccc21 | > 99.5 µM |
| Cn1nc(C2CCN(C(=O)c3ccccc3CSc3nnc[nH]3)CC2)cc1O | > 99.5 µM |

Source: ChEMBL document CHEMBL5604063, “ASAP - DENV-2 NS2B-NS3 protease fluorescence dose response” (2024)
